Test results published in article doi:10.1101/2021.11.01.466777v1 (bioRxiv, 2021).
Starred links: 1 amine or outer side, 2 acyl side, 3 side chain; linkers in the order of their positions; H or OH if unused. Positions of bridges follow the written chain, without caps; N, C: chain ends. Non-standard residues stand in square brackets, D forms with d. Residues, ends and D or L forms follow the SMILES beside them. *: point of attachment. dAsp(3R-OH) = N[C@@H](C(=O)O)[C@@H](O)C(=O)O; X1 = NC[C@H](O)[C@@H](N[*:1])C(=O)[*:2]; X2 = CCC(C)(O)[C@H](N[*:1])C(=O)[*:2]; d(aIle) = CC[C@H](C)[C@@H](N)C(=O)O; d(aThr) = C[C@@H](O)[C@@H](N)C(=O)O; Myristoyl = CCCCCCCCCCCCCC(=O)*; dOrn = NCCC[C@@H](N)C(=O)O; hSer = N[C@@H](CCO)C(=O)O

How the values were obtained:
[1] = human volunteers; no reference given; cited from earlier work
[2] = Pharmacokinetics after IV slow bolus in uninfected mice; format: in vivo, mouse (female BALB/c); settings: 5 mg/kg IV; for Plasma concentration, Mean: mean of n = 3
[3] = tested on: neutropenic female BALB/c mice; assay: Toxicity and Maximum Tolerated Dose; format: in vivo, mouse

## daptomycin
[1]
  volume of distribution: 0.1 L/kg

## CCCCCCCCCCCCCC(=O)N[C@H](CCCN)C(=O)N[C@@H](CO)C(=O)N[C@H](C(=O)N[C@@H](C(=O)N[C@@H](C(=O)N[C@H]1C(=O)NCC(=O)N[C@@H](C(C)(O)CC)C(=O)N[C@H]([C@@H](C)CC)C(=O)N[C@@H](CCO)C(=O)N[C@@H](C)C(=O)N[C@H]([C@@H](C)CC)C(=O)N[C@@H](CCC(=O)O)C(=O)O[C@@H]1C)[C@@H](O)CN)[C@@H](O)C(=O)O)C(C)C (stereo partly drawn) [turnercyclamycin A] (Myristoyl-[dOrn]SV[dAsp(3R-OH)][X1][d(aThr)]G[X2][d(aIle)][hSer]A[d(aIle)]E; ester 6-C)
[2]; 0.05 h
  Plasma concentration, Mean: 53333 ng/mL
[2]; 0.05 h, sample 1, LC-MS/MS
  Sample concentration in plasma: 52235 ng/mL
[2]; 0.05 h, sample 2, LC-MS/MS
  Sample concentration in plasma: 51887 ng/mL
[2]; 0.05 h, sample 3, LC-MS/MS
  Sample concentration in plasma: 55877 ng/mL
[2]; 0.167 h
  Plasma concentration, Mean: 38646 ng/mL
[2]; 0.167 h, sample 1, LC-MS/MS
  Sample concentration in plasma: 36107 ng/mL
[2]; 0.167 h, sample 2, LC-MS/MS
  Sample concentration in plasma: 38906 ng/mL
[2]; 0.167 h, sample 3, LC-MS/MS
  Sample concentration in plasma: 40924 ng/mL
[2]; 1 h
  Plasma concentration, Mean: 29269 ng/mL
[2]; 1 h, sample 1, LC-MS/MS
  Sample concentration in plasma: 24635 ng/mL
[2]; 1 h, sample 3, LC-MS/MS
  Sample concentration in plasma: 29337 ng/mL
[2]; 2 h
  Plasma concentration, Mean: 26200 ng/mL
[2]; 2 h, sample 1, LC-MS/MS
  Sample concentration in plasma: 26373 ng/mL
[2]; 2 h, sample 2, LC-MS/MS
  Sample concentration in plasma: 25446 ng/mL
[2]; 2 h, sample 3, LC-MS/MS
  Sample concentration in plasma: 26782 ng/mL
[2]; 4 h
  Plasma concentration, Mean: 22542 ng/mL
[2]; 4 h, sample 1, LC-MS/MS
  Sample concentration in plasma: 22923 ng/mL
[2]; 4 h, sample 2, LC-MS/MS
  Sample concentration in plasma: 22209 ng/mL
[2]; 4 h, sample 3, LC-MS/MS
  Sample concentration in plasma: 22495 ng/mL
[2]; 8 h
  Plasma concentration, Mean: 11971 ng/mL
[2]; 8 h, sample 1, LC-MS/MS
  Sample concentration in plasma: 11661 ng/mL
[2]; 8 h, sample 2, LC-MS/MS
  Sample concentration in plasma: 13130 ng/mL
[2]; 8 h, sample 3, LC-MS/MS
  Sample concentration in plasma: 11123 ng/mL
[2]; 24 h
  Plasma concentration, Mean: 931 ng/mL
[2]; 24 h, sample 1, LC-MS/MS
  Sample concentration in plasma: 974 ng/mL
[2]; 24 h, sample 2, LC-MS/MS
  Sample concentration in plasma: 764 ng/mL
[2]; 24 h, sample 3, LC-MS/MS
  Sample concentration in plasma: 1054 ng/mL
[2]; mouse plasma, NCA
  CL: 0.29 mL/min/kg
[2]; time printed 0 h, sample 1, LC-MS/MS
  Sample concentration in plasma: 34373 ng/mL
[2]; time printed 0 h, sample 2, LC-MS/MS
  Sample concentration in plasma: 31954 ng/mL
[2]; time printed 0 h, sample 3, LC-MS/MS
  Sample concentration in plasma: 34645 ng/mL
[3]; 25 mg/kg (printed mg/mL) IV BID q12h, 24 hours after first treatment
  body weight change: no body weight drop was observed
[3]; 25 mg/kg (printed mg/mL) IV BID q12h, n = 3
  mortality: did not induce mortality in any mice
[3]; 25 mg/kg IV bid (q12h) x1, mouse No. 7, Day 0 (first)
  Body Weight: 17 g
[3]; 25 mg/kg IV bid (q12h) x1, mouse No. 7, Day 1
  Body Weight: 17 g
[3]; 25 mg/kg IV bid (q12h) x1, mouse No. 8, Day 0 (first)
  Body Weight: 17 g
[3]; 25 mg/kg IV bid (q12h) x1, mouse No. 8, Day 1
  Body Weight: 17 g
[3]; 50 mg/kg (printed mg/mL) IV BID q12h, 24 hours post-treatment
  body weight change: slight body weight losses were observed
[3]; 50 mg/kg (printed mg/mL) IV BID q12h, n = 3
  mortality: did not induce mortality in any mice
[3]; 50 mg/kg IV bid (q12h) x1, mouse No. 4, Day 0 (first)
  Body Weight: 16 g
[3]; 50 mg/kg IV bid (q12h) x1, mouse No. 4, Day 0 (second)
  Body Weight: 15 g
[3]; 50 mg/kg IV bid (q12h) x1, mouse No. 4, Day 1
  Body Weight: 15 g
[3]; 50 mg/kg IV bid (q12h) x1, mouse No. 5, Day 0 (first)
  Body Weight: 15 g
[3]; 50 mg/kg IV bid (q12h) x1, mouse No. 5, Day 1
  Body Weight: 14 g
[3]; 50 mg/kg IV bid (q12h) x1, mouse No. 6, Day 0 (first)
  Body Weight: 16 g
[3]; 50 mg/kg IV bid (q12h) x1, mouse No. 6, Day 0 (second)
  Body Weight: 16 g
[3]; 50 mg/kg IV bid (q12h) x1, mouse No. 6, Day 1
  Body Weight: 16 g
[3]; 100 mg/kg IV
  mortality: fatal in the first mouse
[3]; mice, IV BID q12h
  well tolerated dose: up to 25 mg/kg
[3]; neutropenic female BALB/c mice, IV BID q12h, n = 3 per dose
  Maximum Tolerated Dose (MTD): 25 mg/kg
